Earlier results as cited in patent US7141428B2 (priority 2000, dated 2006).

Tests used:
[1] = tested on: growth cone collapse; details: collapse induced by activation of Rho or ROK
[2] = target: Rho kinase (Rho-associated protein kinase, p160ROCK) (Homo sapiens, UniProt Q13464)
Rho kinase (Rho-associated protein kinase, p160ROCK), sequence (Q13464 whole entry, looked up): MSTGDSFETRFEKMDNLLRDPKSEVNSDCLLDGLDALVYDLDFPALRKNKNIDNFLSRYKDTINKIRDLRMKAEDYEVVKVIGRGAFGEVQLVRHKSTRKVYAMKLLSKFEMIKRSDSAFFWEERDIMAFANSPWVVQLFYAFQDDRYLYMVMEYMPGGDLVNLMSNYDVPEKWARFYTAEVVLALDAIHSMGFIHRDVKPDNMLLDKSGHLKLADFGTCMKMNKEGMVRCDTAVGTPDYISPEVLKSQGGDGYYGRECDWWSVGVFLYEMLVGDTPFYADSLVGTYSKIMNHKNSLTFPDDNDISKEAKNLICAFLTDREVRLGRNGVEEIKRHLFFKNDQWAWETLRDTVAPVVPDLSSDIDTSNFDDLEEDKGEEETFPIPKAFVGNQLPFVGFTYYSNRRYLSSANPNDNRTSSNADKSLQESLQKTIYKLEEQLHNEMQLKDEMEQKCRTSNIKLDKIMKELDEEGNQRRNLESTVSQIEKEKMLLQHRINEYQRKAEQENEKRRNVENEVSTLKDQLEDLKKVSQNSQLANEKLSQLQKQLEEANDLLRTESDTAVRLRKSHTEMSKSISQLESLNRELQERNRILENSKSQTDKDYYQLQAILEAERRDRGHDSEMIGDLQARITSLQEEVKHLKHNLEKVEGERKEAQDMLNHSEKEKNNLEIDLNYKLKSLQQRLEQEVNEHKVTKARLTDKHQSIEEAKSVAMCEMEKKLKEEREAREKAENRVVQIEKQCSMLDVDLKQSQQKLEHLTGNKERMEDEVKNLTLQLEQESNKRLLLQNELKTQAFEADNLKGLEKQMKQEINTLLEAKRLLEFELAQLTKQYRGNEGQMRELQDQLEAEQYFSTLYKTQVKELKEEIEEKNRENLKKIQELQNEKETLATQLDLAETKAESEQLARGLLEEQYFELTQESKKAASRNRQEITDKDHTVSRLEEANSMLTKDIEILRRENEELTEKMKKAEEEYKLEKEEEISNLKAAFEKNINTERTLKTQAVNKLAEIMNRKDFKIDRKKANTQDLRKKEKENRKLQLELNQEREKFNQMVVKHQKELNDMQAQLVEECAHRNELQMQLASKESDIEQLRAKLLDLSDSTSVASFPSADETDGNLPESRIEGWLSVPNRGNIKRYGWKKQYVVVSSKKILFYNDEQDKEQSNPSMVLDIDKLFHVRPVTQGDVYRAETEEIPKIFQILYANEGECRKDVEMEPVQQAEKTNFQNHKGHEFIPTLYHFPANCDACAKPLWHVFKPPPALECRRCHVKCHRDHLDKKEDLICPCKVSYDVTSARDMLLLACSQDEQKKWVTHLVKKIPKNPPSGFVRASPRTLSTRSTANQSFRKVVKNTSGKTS

Which “prevention of growth cone collapse” value [1] does the source give for `C[C@@H](N)[C@H]1CC[C@H](C(=O)Nc2ccncc2)CC1` [Y-27632, (R)-(+)-trans-N-(4-pyridyl)-4-(1-aminoethyl)-cyclohexanecarboamide] here?
The value was “can be prevented”.

What about the “concentration at which Rho kinase is inhibited” value [2] of the same compound?
Its value is “sub-micromolar”.
